Experimental findings from patent US11440923B2, “Substituted macrocyclic indole derivatives” (Bayer Aktiengesellschaft, priority 2017, dated 2022) are described below.

Molecules are shown by their SMILES. pIC50: −log10 of the molar value. Structures can show the parent of a compound that is named as a salt. A value given as a limit tells only on which side of the number the result lay.

MCL1 protein / biotinylated BIM BH3 peptide in RKO cells, sequence (Q07820 whole entry): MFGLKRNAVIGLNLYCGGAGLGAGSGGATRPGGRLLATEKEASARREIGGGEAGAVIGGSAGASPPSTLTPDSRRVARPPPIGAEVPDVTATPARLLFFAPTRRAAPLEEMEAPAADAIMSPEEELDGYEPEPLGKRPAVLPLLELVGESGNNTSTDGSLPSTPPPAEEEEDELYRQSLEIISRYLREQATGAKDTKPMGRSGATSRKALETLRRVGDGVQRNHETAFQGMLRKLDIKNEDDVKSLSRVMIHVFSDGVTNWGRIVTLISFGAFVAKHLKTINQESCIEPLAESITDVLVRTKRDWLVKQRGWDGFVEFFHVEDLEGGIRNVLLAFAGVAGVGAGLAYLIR
MCL-1, sequence (Q07820 whole entry, looked up, stated change not applied, the tested form may be a part): as the sequence (Q07820 whole entry) above

For the first assay, the target named is MCL1 protein / biotinylated BIM BH3 peptide in RKO cells (Homo sapiens (Human), UniProt Q07820). In words: PIxEL: protein-protein interaction in permeabilized cells by ELISA (Assay 5). It is filed as cell-based. The conditions noted are these: PIxEL IC50 (median). Here is the method:
PIxEL: Protein-Protein Interaction in Permeabilized Cells by ELISA
Most MCL1 protein molecules are localized at the mitochondria outer membrane and sequester pro-apoptotic proteins through binding of their BCL2 homology domain 3 (BH3 domain). MEB buffer (150 mM mannitol, 10 mM HEPES pH 7.5, 50 mM KCl, 20 μM EDTA, 20 μM EGTA, 5 mM potassium succinate, 0.1% protease-free BSA (SIGMA) with low dose digitonin (0.002%) permeabilizes plasma membrane while leaves live mitochondria, where MCL1 maintains its native localization and conformation. Unlike biophysical assays (e.g. TR-FRET) that use truncated recombinant MCL1 protein, this assay uses full length endogenous MCL1 protein at mitochondria outer membrane. It measures the interaction between MCL1 protein and biotinylated BIM BH3 peptide. Compounds can compete with BIM BH3 peptide to bind to MCL1 protein.
On day 1, RKO colon cancer cell line cells were plated at 0.8 million cells/ml, 100 μl/well in 96-well flat bottom TC plates (Corning). MCL1 antibody (Santa Cruz sc-12756) were diluted at 200 fold (final concentration 1 μg/ml) in carbonate buffer (Thermo Fisher Scientific, pH 9.6), and 50 μl of diluted antibody was added to each well of high bind ELISA plates ([…]). Each plate was tapped to make sure liquid covering entire bottom of wells and incubate at 37° C. overnight.
On the second day, MCL1 antibody was washed from ELISA plate. 250 μl Odyssey® Blocking Buffer (PBS) (Li-Cor) was added to each well, incubated at room temperature for at least 1 hour, then washed once with 250 μl 1×PBST. Plates with RKO cells were gently washed once with 100 μl/well PBS, once with 100 μl/well MEB buffer without digitonin, then 100 μl of MEB buffer with 0.002% digitonin was gently added to each well. Compounds were added with HP Tecan compound dispenser in 3-fold dilution series, highest dose 30 μM, 10-dose per compound in quadruplicates. Biotin-BIM peptide (synthesized by 21st Century) was added with HP Tecan compound dispenser at 0.2 μM immediately after the addition of compounds. Plates were rocked for 1 hour at room temperature. Then MEB buffer was aspirated and 50 μl of CHAPS buffer (50 mM Tris-Cl, pH 7.4, 150 mM NaCl, 1% CHAPS, 1 mM EDTA, 1 mM EGTA, cOmplete protease inhibitors (Roche), PhosSTOP (Roche)) was added to each well. Plates were rocked for 1 hour at 4° C., then 45 μl cell lysate from each well were transferred to ELISA plates coated with MCL1 antibody. Plates were incubated overnight in the cold room with rocking.
On the third day, ELISA plates were washed once with 250 μl 1×PBST. Streptavidin-poly-HRP (Thermo Fisher Scientific) was diluted to 20 ng/ml in Odyssey blocking buffer plus 0.05% Triton-100, and 100 μl was added to each well of the ELISA plate. Plates were incubated at room temperature for 1 hour with rocking, then washed with 100 μl 1×PBST for 3 times. Each SuperSignal ELISA Femto Maximum Sensitivity substrate was added to a 50-ml tube and mixed, then 100 μl of mixed substrate was added to each well. Plates were shaken for 1 minute then luminescence was measured by Envision plate reader […]. Signal of each well were normalized by no-compound control and no-cell control. IC50 was calculated using Graphic Pad PRISM software.
Regarding `CCc1c2c(nn1C)C(CC(C)(C)O)OCCCCn1c(C(=O)O)c(CCCOc3cccc4cc(F)ccc34)c3ccc(Cl)c-2c31` (single isomer, unassigned; enantiomer 1) [Example 53, (+)-4-chloro-3-ethyl-7-{3-[(6-fluoronaphthalen-1-yl)oxy]propyl}-15-(2-hydroxy-2-methylpropyl)-2-methyl-2,10,11,12,13,15-hexahydropyrazolo[4′,3′:9,10][1,6]oxazacycloundecino[8,7,6-hi]indole-8-carboxylic Acid—N-ethylethanamine Salt (Enantiomer 1)], the pIC50 was 6.87.
Still for that read-out and setting: for `CCc1c2c(nn1C)C(C(F)(F)F)OCCCCn1c(C(=O)O)c(CCCOc3cccc4ccccc34)c3ccc(Cl)c-2c31` (single isomer, unassigned; enantiomer 1) [Example 33, (+)-4-chloro-3-ethyl-2-methyl-7-{3-[(naphthalen-1-yl)oxy]propyl}-15-(trifluoromethyl)-2,10,11,12,13,15-hexahydropyrazolo[4′,3′:9,10][1,6]oxazacycloundecino[8,7,6-hi]indole-8-carboxylic Acid—N-ethylethanamine Salt (Enantiomer 1)] the value was 5.82; for `CCc1c2c(nn1C)C(CCN1CCOCC1)OCCCCn1c(C(=O)O)c(CCCOc3cccc4ccccc34)c3ccc(F)c-2c31` (single isomer, unassigned; enantiomer 2) [Example 12, 3-ethyl-4-fluoro-2-methyl-15-[2-(morpholin-4-yl)ethyl]-7-{3-[(naphthalen-1-yl)oxy]propyl}-2,10,11,12,13,15-hexahydropyrazolo[4′,3′:9,10][1,6]oxazacycloundecino[8,7,6-hi]indole-8-carboxylic Acid—N-ethylethanamine Salt (Enantiomer 2)], 4.71; for `CCc1c2c(nn1C)C(CCN1CC(F)(F)C1)OCCCCn1c(C(=O)O)c(CCCOc3cccc4cc(F)ccc34)c3ccc(Cl)c-2c31` (single isomer, unassigned; (+)) [Example 78, (+)-4-chloro-15-[2-(3,3-difluoroazetidin-1-yl)ethyl]-3-ethyl-7-{3-[(6-fluoronaphthalen-1-yl)oxy]propyl}-2-methyl-2,10,11,12,13,15-hexahydropyrazolo[4′,3′:9,10][1,6]oxazacycloundecino[8,7,6-hi]indole-8-carboxylic Acid—N-ethylethanamine Salt], 7.36.
`CCC1OCCCCn2c(C(=O)O)c(CCCOc3cccc4ccccc34)c3ccc(Cl)c(c32)-c2c1nn(C)c2C` (single isomer, unassigned; enantiomer 1) [Example 29, (+)-4-chloro-15-ethyl-2,3-dimethyl-7-{3-[(naphthalen-1-yl)oxy]propyl}-2,10,11,12,13,15-hexahydropyrazolo[4′,3′:9,10][1,6]oxazacycloundecino[8,7,6-hi]indole-8-carboxylic Acid—N-ethylethanamine Salt (Enantiomer 1)] had a negative logarithm of the IC50 (pIC50) of 5.97.
Regarding `CCc1c2c(nn1C)C(C1CC1)OCCCCn1c(C(=O)O)c(CCCOc3cccc4cc(F)ccc34)c3ccc(Cl)c-2c31` (single isomer, unassigned; enantiomer 1) [Example 39, (+)-4-chloro-15-cyclopropyl-3-ethyl-7-{3-[(6-fluoronaphthalen-1-yl)oxy]propyl}-2-methyl-2,10,11,12,13,15-hexahydropyrazolo[4′,3′:9,10][1,6]oxazacycloundecino[8,7,6-hi]indole-8-carboxylic Acid—N-ethylethanamine Salt (Enantiomer 1)], the pIC50 was 6.50.
Regarding `Cc1c2c(nn1C)C(C1CC1)OCCCCn1c(C(=O)O)c(CCCOc3cccc4ccccc34)c3ccc(Cl)c-2c31` (single isomer, unassigned; enantiomer 1) [Example 35, (+)-4-chloro-15-cyclopropyl-2,3-dimethyl-7-{3-[(naphthalen-1-yl)oxy]propyl}-2,10,11,12,13,15-hexahydropyrazolo[4′,3′:9,10][1,6]oxazacycloundecino[8,7,6-hi]indole-8-carboxylic Acid N-ethylethanamine Salt (Enantiomer 1)], the pIC50 is 5.79.

The assay is the same for the next values; noted with them: PIxEL IC50 (median), uM.
`CCc1c2c(nn1C)C(CCN1CCOCC1)OCCCCn1c(C(=O)O)c(CCCOc3cccc4ccccc34)c3ccc(F)c-2c31` (single isomer, unassigned; enantiomer 1) [Example 11, 3-ethyl-4-fluoro-2-methyl-15-[2-(morpholin-4-yl)ethyl]-7-{3-[(naphthalen-1-yl)oxy]propyl}-2,10,11,12,13,15-hexahydropyrazolo[4′,3′:9,10][1,6]oxazacycloundecino[8,7,6-hi]indole-8-carboxylic Acid—N-ethylethanamine Salt (Enantiomer 1)] showed an IC50 of more than 30 µM.

Another assay concerns the target MCL-1 (Homo sapiens (Human), UniProt Q07820, K194A/K197A/R201A). In words: Protein-protein interaction assay MCL-1/Noxa BH3 peptide (MCL-1 assay, TR-FRET). Format: binding. The conditions noted are these: MCL-1 Assay IC50 (median). In a few lines: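 IC50 came from a 4-parameter regression of the 665/620 nm emission ratio, normalized to DMSO controls. The mix held 1 nM MBP-fused MCL-1 (residues 173-321), a biotin-Noxa BH3 tracer and compound in Tris buffer pH 7, incubated 10 min plus 1 h at 22° C., then overnight at 4° C.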
`Cc1c2c(nn1C)C(CCN1CCOCC1)OCCCCn1c(C(=O)O)c(CCCOc3cccc4ccccc34)c3cccc-2c31` (single isomer, unassigned; stereoisomer 2) [Example 6, 2,3-dimethyl-15-[2-(morpholin-4-yl)ethyl]-7-[3-(naphthalen-1-yloxy)propyl]-2,10,11,12,13,15-hexahydropyrazolo[4′,3′:9,10][1,6]oxazacycloundecino[8,7,6-hi]indole-8-carboxylic Acid (Stereoisomer 2)] showed a pIC50 of 7.29.
Same read-out and setting: next, `CCc1c2c(nn1C)C(CCO)OCCCCn1c(C(=O)O)c(CCCOc3cccc4cc(F)ccc34)c3ccc(Cl)c-2c31` (single isomer, unassigned; enantiomer 2) [Example 46, (−)-4-chloro-3-ethyl-7-{3-[(6-fluoronaphthalen-1-yl)oxy]propyl}-15-(2-hydroxyethyl)-2-methyl-2,10,11,12,13,15-hexahydropyrazolo[4′,3′:9,10][1,6]oxazacycloundecino[8,7,6-hi]indole-8-carboxylic Acid (Enantiomer 2)]: 7.44; `CCc1c2c(nn1C)C(CC(C)(C)O)OCCCCn1c(C(=O)O)c(CCCOc3cccc4cc(F)ccc34)c3ccc(Cl)c-2c31` (racemic) [Example 52, (rac)-4-chloro-3-ethyl-7-{3-[(6-fluoronaphthalen-1-yl)oxy]propyl}-(15-rac)-(2-hydroxy-2-methylpropyl)-2-methyl-2,10,11,12,13,15-hexahydropyrazolo[4′,3′:9,10][1,6]oxazacycloundecino[8,7,6-hi]indole-8-carboxylic Acid]: 9.06.
As to `Cc1c2c(nn1C)C(CCO)OCCCCn1c(C(=O)O)c(CCCOc3cccc4ccccc34)c3ccc(Cl)c-2c31` (single isomer, unassigned; enantiomer 2) [Example 32, (−)-4-chloro-15-(2-hydroxyethyl)-2,3-dimethyl-7-{3-[(naphthalen-1-yl)oxy]propyl}-2,10,11,12,13,15-hexahydropyrazolo[4′,3′:9,10][1,6]oxazacycloundecino[8,7,6-hi]indole-8-carboxylic Acid (Enantiomer 2)], the negative logarithm of the IC50 (pIC50) was 7.12.
For the compound `Cc1c2c(nn1C)C(CCN1CCOCC1)OCCCCn1c(C(=O)O)c(CCCOc3cccc4cc(F)ccc34)c3ccc(F)c-2c31` (racemic) [Example 19, (rac)-4-fluoro-7-{3-[(6-fluoronaphthalen-1-yl)oxy]propyl}-2,3-dimethyl-15-[2-(morpholin-4-yl)ethyl]-2,10,11,12,13,15-hexahydropyrazolo[4′,3′:9,10][1,6]oxazacycloundecino[8,7,6-hi]indole-8-carboxylic Acid], the pIC50 was 8.80.
